According to US20260132132A1, “3A,4,5,6-TETRAHYDRO-1 H-PYRAZOLO[3,4-C]PYRIDIN-7(7AH)-ONE DERIVATIVES AS FACTOR XIIA INHIBITORS” (KALVISTA PHARMACEUTICALS LIMITED, priority 2022, published 2026):

Legend:
[1] = target: T1, Human Factor XIIa (hFXIIa) (Homo sapiens, UniProt P00748); test: Determination of Human Factor XIIa (hFXIIa) inhibition, fluorogenic substrate IC50 assay; assay type: biochemical; settings: fluorogenic substrate H-DPro-Phe-Arg-AFC at Km, 25° C., read-out: Human FXIIa IC50
T1 construct: purchased Enzyme Research Laboratories
T1 sequence (P00748 373-615 limits assumed): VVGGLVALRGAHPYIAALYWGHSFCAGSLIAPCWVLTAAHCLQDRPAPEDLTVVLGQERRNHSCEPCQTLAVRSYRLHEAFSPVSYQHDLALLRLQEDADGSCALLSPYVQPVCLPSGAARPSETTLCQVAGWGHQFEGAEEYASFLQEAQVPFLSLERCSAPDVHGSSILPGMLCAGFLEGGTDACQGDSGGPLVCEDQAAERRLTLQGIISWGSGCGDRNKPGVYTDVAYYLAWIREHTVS
T1 sequence (P00748 20-372 partner limits assumed): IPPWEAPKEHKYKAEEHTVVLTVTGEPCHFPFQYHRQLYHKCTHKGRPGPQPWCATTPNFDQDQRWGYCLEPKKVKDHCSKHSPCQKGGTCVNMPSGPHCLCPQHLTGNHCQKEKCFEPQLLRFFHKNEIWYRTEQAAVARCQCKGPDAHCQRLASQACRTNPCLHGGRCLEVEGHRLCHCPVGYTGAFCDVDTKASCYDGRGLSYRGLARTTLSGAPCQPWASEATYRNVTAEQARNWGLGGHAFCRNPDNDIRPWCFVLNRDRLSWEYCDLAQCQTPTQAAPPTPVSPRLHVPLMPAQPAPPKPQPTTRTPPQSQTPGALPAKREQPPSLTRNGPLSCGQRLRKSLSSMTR
Experimental: Determination of Human Factor XIIa (hFXIIa) inhibition
The Km for the cleavage of the substrate by hFXIIa was determined by standard transformation of the Michaelis-Menten equation, with subsequent inhibition assays performed at substrate Km concentration.

[2] = target: FXa (Homo sapiens, UniProt P00742); test: Related protease inhibition: FXa, fluorogenic substrate; assay type: biochemical; settings: fluorogenic substrate at Km, 25° C.; H1-H3 = % activity at 40 μM
Sequence of FXa (P00742 235-488 limits assumed): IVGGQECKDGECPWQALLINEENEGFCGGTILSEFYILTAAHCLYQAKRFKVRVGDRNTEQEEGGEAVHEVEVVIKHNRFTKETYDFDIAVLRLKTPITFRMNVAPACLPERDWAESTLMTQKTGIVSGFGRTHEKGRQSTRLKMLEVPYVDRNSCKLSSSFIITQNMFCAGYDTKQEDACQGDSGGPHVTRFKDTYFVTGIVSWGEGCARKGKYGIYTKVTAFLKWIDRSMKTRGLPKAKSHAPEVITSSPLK
Sequence of FXa (P00742 41-179 partner limits assumed): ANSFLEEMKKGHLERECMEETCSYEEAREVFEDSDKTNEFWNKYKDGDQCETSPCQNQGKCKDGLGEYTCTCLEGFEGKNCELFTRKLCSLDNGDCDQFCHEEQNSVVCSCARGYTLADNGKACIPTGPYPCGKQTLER
Experimental: Human serine protease enzyme Plasma Kallikrein, KLK1, FXa, Plasmin, Thrombin and Trypsin were assayed for enzymatic activity using an appropriate fluorogenic substrate at Km concentration, FXIa at fixed substrate concentration of 100 μM and various concentrations of the test compound.

Compound | IC50 [1] [µM] | IC50 [2] [µM]
CN1CCc2ccc(N3CCc4c(C(=O)NS(C)(=O)=O)nn(-c5cccc(Cl)c5)c4C3=O)cc2C1=O [Example 1345, 1-(3-chlorophenyl)-6-(2-methyl-1-oxo-1,2,3,4-tetrahydroisoquinolin-7-yl)-N-(methylsulfonyl)-7-oxo-4,5,6,7-tetrahydro-1H-pyrazolo[3,4-c]pyridine-3-carboxamide] | 3 to 10 | > 40
CN1CCc2ccc(N3CCc4c(C(=O)NC5CCC5)nn(-c5cccc(Cl)c5)c4C3=O)cc2C1=O [Example 1346, 1-(3-chlorophenyl)-N-cyclobutyl-6-(2-methyl-1-oxo-1,2,3,4-tetrahydroisoquinolin-7-yl)-7-oxo-4,5,6,7-tetrahydro-1H-pyrazolo[3,4-c]pyridine-3-carboxamide] | 0.3 to 1 | > 40
CN1CCc2ccc(N3CCc4c(C(=O)NO)nn(-c5cccc(Cl)c5)c4C3=O)cc2C1=O [Example 1347, 1-(3-chlorophenyl)-N-hydroxy-6-(2-methyl-1-oxo-1,2,3,4-tetrahydroisoquinolin-7-yl)-7-oxo-4,5,6,7-tetrahydro-1H-pyrazolo[3,4-c]pyridine-3-carboxamide] | 0.3 to 1 | 3 to 10
CCOC(=O)c1nn(-c2cccc(Cl)c2)c2c1CCN(c1cccc(-n3ccccc3=O)c1)C2=O [Example 1350, ethyl 1-(3-chlorophenyl)-7-oxo-6-(3-(2-oxopyridin-1(2H)-yl)phenyl)-4,5,6,7-tetrahydro-1H-pyrazolo[3,4-c]pyridine-3-carboxylate] | 3 to 10 | 3 to 10
Cc1cc(CNC(=O)c2nn(-c3cccc(Cl)c3)c3c2CCN(c2ccc4c(c2)C(=O)N(C)[C@H](CO)CO4)C3=O)nn1C [Example 1351, (R)-1-(3-chlorophenyl)-N-((1,5-dimethyl-1H-pyrazol-3-yl)methyl)-6-(3-(hydroxymethyl)-4-methyl-5-oxo-2,3,4,5-tetrahydrobenzo[f][1,4]oxazepin-7-yl)-7-oxo-4,5,6,7-tetrahydro-1H-pyrazolo[3,4-c]pyridine-3-carboxamide] | 3 to 10 | > 40
CCN1CCOc2ccc(N3CCc4c(C(=O)NCc5cc(C)[nH]n5)nn(-c5cccc(Cl)c5)c4C3=O)cc2C1=O [Example 1352, 1-(3-chlorophenyl)-6-(4-ethyl-5-oxo-2,3,4,5-tetrahydrobenzo[f][1,4]oxazepin-7-yl)-N-((5-methyl-1H-pyrazol-3-yl)methyl)-7-oxo-4,5,6,7-tetrahydro-1H-pyrazolo[3,4-c]pyridine-3-carboxamide] | 0.01 to 0.1 | 3 to 10
CN1CCc2ccc(N3CCc4c(C5=NCCO5)nn(-c5cccc(Cl)c5)c4C3=O)cc2C1=O [Example 1353, 7-(1-(3-Chlorophenyl)-3-(4,5-dihydrooxazol-2-yl)-7-oxo-1,4,5,7-tetrahydro-6H-pyrazolo[3,4-c]pyridin-6-yl)-2-methyl-3,4-dihydroisoquinolin-1 (2H)-one] | 0.3 to 1 | 3 to 10
CN1CCc2ccc(N3CCc4c(COC5(C)COC5)nn(-c5cccc(Cl)c5)c4C3=O)cc2C1=O [Example 1354, 7-(1-(3-chlorophenyl)-3-(((3-methyloxetan-3-yl)oxy)methyl)-7-oxo-1,4,5,7-tetrahydro-6H-pyrazolo[3,4-c]pyridin-6-yl)-2-methyl-3,4-dihydroisoquinolin-1 (2H)-one] | 1 to 3 | 10 to 40
O=C(NCc1ccn(C2CC2)n1)c1nn(-c2cccc(Cl)c2)c2c1CCN(c1ccc3c(c1)C(=O)N(CCO)CC3)C2=O [Example 1355, 1-(3-chlorophenyl)-N-((1-cyclopropyl-1H-pyrazol-3-yl)methyl)-6-(2-(2-hydroxyethyl)-1-oxo-1,2,3,4-tetrahydroisoquinolin-7-yl)-7-oxo-4,5,6,7-tetrahydro-1H-pyrazolo[3,4-c]pyridine-3-carboxamide] | 0.1 to 0.3 | > 40
Cc1ccncc1COCc1nn(-c2cccc(Cl)c2)c2c1CCN(c1ccc3c(c1)C(=O)N(C)CC3)C2=O [Example 1356, 7-(1-(3-chlorophenyl)-3-(((4-methylpyridin-3-yl)methoxy)methyl)-7-oxo-1,4,5,7-tetrahydro-6H-pyrazolo[3,4-c]pyridin-6-yl)-2-methyl-3,4-dihydroisoquinolin-1(2H)-one] | 1 to 3 | 3 to 10
Cc1cnccc1CNC(=O)c1nn(-c2cccc(Cl)c2)c2c1CCN(c1ccc3c(c1)C(=O)N(CCO)CC3)C2=O [Example 1357, 1-(3-chlorophenyl)-6-(2-(2-hydroxyethyl)-1-oxo-1,2,3,4-tetrahydroisoquinolin-7-yl)-N-((3-methylpyridin-4-yl)methyl)-7-oxo-4,5,6,7-tetrahydro-1H-pyrazolo[3,4-c]pyridine-3-carboxamide] | 0.3 to 1 | > 40
CN1CCc2ccc(N3CCc4c(COCC(=O)O)nn(-c5cccc(Cl)c5)c4C3=O)cc2C1=O [Example 1358, 2-((1-(3-chlorophenyl)-6-(2-methyl-1-oxo-1,2,3,4-tetrahydroisoquinolin-7-yl)-7-oxo-4,5,6,7-tetrahydro-1H-pyrazolo[3,4-c]pyridin-3-yl)methoxy)acetic acid] | 1 to 3 | 3 to 10
CN1CCc2ccc(N3CCc4c(C(=O)NC5(C)CC5)nn(-c5cccc(Cl)c5)c4C3=O)cc2C1=O [Example 1359, 1-(3-chlorophenyl)-6-(2-methyl-1-oxo-1,2,3,4-tetrahydroisoquinolin-7-yl)-N-(1-methylcyclopropyl)-7-oxo-4,5,6,7-tetrahydro-1H-pyrazolo[3,4-c]pyridine-3-carboxamide] | 0.3 to 1 | > 40
CN1CCc2ccc(N3CCc4c(C(=O)NC5(CO)CC5)nn(-c5cccc(Cl)c5)c4C3=O)cc2C1=O [Example 1360, 1-(3-chlorophenyl)-N-(1-(hydroxymethyl)cyclopropyl)-6-(2-methyl-1-oxo-1,2,3,4-tetrahydroisoquinolin-7-yl)-7-oxo-4,5,6,7-tetrahydro-1H-pyrazolo[3,4-c]pyridine-3-carboxamide] | 0.3 to 1 | 10 to 40
CN1CCc2ccc(N3CCc4c(C(=O)NC5(C(=O)O)CC5)nn(-c5cccc(Cl)c5)c4C3=O)cc2C1=O [Example 1361, 1-(1-(3-chlorophenyl)-6-(2-methyl-1-oxo-1,2,3,4-tetrahydroisoquinolin-7-yl)-7-oxo-4,5,6,7-tetrahydro-1H-pyrazolo[3,4-c]pyridine-3-carboxamido)cyclopropane-1-carboxylic acid] | 1 to 3 | 10 to 40
CCNC(=O)c1nn(-c2cccc(Cl)c2)c2c1CCN(c1cccc(N3CCOC3=O)c1)C2=O [Example 1362, 1-(3-chlorophenyl)-N-ethyl-7-oxo-6-(3-(2-oxooxazolidin-3-yl)phenyl)-4,5,6,7-tetrahydro-1H-pyrazolo[3,4-c]pyridine-3-carboxamide] | 3 to 10 | > 40
CCNC(=O)c1nn(-c2cccc(Cl)c2)c2c1CCN(c1cccc(N3CCCOC3=O)c1)C2=O [Example 1363, 1-(3-chlorophenyl)-N-ethyl-7-oxo-6-(3-(2-oxo-1,3-oxazinan-3-yl)phenyl)-4,5,6,7-tetrahydro-1H-pyrazolo[3,4-c]pyridine-3-carboxamide] | 3 to 10 | > 40
